Reference: ChEMBL document CHEMBL5727401, “Mixed lineage kinase inhibitors for HIV/AIDS therapies” (2019)

Target: Mitogen-activated protein kinase kinase kinase 11 (Homo sapiens, UniProt Q16584)
Test: Radiometric Filter Plate MLK3 Assay: 200 ng (130 nM) MLK3 (Dundee, DU8313) was incubated with 1 μM inactive MKK7b (Dundee, DU703) in the presence of 2 μM cold ATP (Km) and 0.5 μCi/assay 33P ATP and appropriate concentrations of compounds. After a twenty minute incubation, the reactions were washed through filter plates and read on a scintillation counter.

Chain of Mitogen-activated protein kinase kinase kinase 11 (Q16584 whole entry): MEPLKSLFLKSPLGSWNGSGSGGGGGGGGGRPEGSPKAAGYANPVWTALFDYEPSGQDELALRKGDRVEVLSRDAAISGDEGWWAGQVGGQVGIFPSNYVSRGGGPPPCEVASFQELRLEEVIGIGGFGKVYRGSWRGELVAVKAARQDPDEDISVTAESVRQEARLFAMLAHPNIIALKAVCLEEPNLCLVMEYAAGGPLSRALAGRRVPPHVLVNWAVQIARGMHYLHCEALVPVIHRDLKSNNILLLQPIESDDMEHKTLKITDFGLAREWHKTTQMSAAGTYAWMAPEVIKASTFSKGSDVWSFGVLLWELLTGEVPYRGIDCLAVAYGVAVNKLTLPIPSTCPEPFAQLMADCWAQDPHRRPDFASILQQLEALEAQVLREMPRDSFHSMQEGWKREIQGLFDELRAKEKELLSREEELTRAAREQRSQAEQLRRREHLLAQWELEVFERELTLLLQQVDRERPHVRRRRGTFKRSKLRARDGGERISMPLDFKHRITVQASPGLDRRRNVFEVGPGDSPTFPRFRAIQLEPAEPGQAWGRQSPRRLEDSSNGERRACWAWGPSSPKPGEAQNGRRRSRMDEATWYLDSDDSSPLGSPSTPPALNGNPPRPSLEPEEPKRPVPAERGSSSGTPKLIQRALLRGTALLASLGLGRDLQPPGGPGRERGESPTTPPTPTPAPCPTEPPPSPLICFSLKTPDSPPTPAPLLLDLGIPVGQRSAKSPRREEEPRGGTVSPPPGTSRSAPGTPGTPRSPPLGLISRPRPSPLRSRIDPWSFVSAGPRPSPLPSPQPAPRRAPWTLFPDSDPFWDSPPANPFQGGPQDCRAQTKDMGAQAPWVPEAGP

Row | Structure (SMILES) | IC50
1 | c1cn(Cc2ccc(-c3cnc4[nH]cc(-c5ccc6[nH]ccc6c5)c4c3)cc2)cn1 | < 100 nM
2 | CN1CCN(Cc2ccc(-c3cnc4[nH]cc(-c5cnc6[nH]ccc6c5)c4c3)cc2)CC1 | < 100 nM
